# Experimental data from PubChem BioAssay (NCI).
#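 Cells were grown in 96-well plates and exposed to each compound for 48 hours at five concentrations; endpoints were interpolated linearly between bracketing concentrations, or set to the highest concentration if not reached. Abbreviation: GI50, concentration required for 50% inhibition of growth. Definition used: TGI = concentration required for complete inhibition of growth.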
# Assays:
# Experiment in all cases: inhibition of tumour cell growth, NCI panel, 48 h
# UACC-62 melanoma = system: UACC-62 melanoma
# NCI-H23 lung = system: NCI-H23 lung
# T-47D breast = system: T-47D breast
# SNB-19 CNS = system: SNB-19 CNS
# TK-10 renal = system: TK-10 renal
# SW-620 colon = system: SW-620 colon
# HCT-15 colon = system: HCT-15 colon
# A549 NSCLC = system: A549 NSCLC
# SK-MEL-2 melanoma = system: SK-MEL-2 melanoma
# MALME-3M melanoma = system: MALME-3M melanoma
# U251 CNS = system: U251 CNS
# MCF7 breast = system: MCF7 breast
# PC-3 prostate = system: PC-3 prostate
# UACC-257 melanoma = system: UACC-257 melanoma
# MDA-MB-231 breast = system: MDA-MB-231 breast
# SNB-75 CNS = system: SNB-75 CNS
# OVCAR-8 ovarian = system: OVCAR-8 ovarian
# SK-OV-3 ovarian = system: SK-OV-3 ovarian
# SK-MEL-28 melanoma = system: SK-MEL-28 melanoma
# SF-539 CNS = system: SF-539 CNS
# CAKI-1 renal = system: CAKI-1 renal
# 786-0 renal = system: 786-0 renal
# RXF 393 renal = system: RXF 393 renal
# NCI-H522 lung = system: NCI-H522 lung
# K-562 leukemia = system: K-562 leukemia
# SN12C renal = system: SN12C renal
# MDA-MB-435 = system: MDA-MB-435
# IGROV1 ovarian = system: IGROV1 ovarian
# COLO 205 colon = system: COLO 205 colon
# NCI-H460 lung = system: NCI-H460 lung
# CCRF-CEM leukemia = system: CCRF-CEM leukemia
# SR leukemia = system: SR leukemia
# ACHN renal = system: ACHN renal
# MDA-MB-468 breast = system: MDA-MB-468 breast
# SF-295 CNS = system: SF-295 CNS
# OVCAR-4 ovarian = system: OVCAR-4 ovarian
# NCI/ADR-RES ovarian = system: NCI/ADR-RES ovarian
# EKVX NSCLC = system: EKVX NSCLC
# OVCAR-3 ovarian = system: OVCAR-3 ovarian
# HS 578T breast = system: HS 578T breast
# RPMI-8226 leukemia = system: RPMI-8226 leukemia
# HCT-116 colon = system: HCT-116 colon
# HT29 colon = system: HT29 colon
# HCC-2998 colon = system: HCC-2998 colon
# M14 melanoma = system: M14 melanoma
# BT-549 breast = system: BT-549 breast
# HOP-92 NSCLC = system: HOP-92 NSCLC
# A498 renal = system: A498 renal
# NCI-H226 lung = system: NCI-H226 lung
# KM12 colon = system: KM12 colon
# MOLT-4 leukemia = system: MOLT-4 leukemia
# UO-31 renal = system: UO-31 renal
# SK-MEL-5 melanoma = system: SK-MEL-5 melanoma
# DU-145 prostate = system: DU-145 prostate
# SF-268 CNS = system: SF-268 CNS
# HL-60(TB) leukemia = system: HL-60(TB) leukemia
# LOX IMVI melanoma = system: LOX IMVI melanoma
# HOP-62 NSCLC = system: HOP-62 NSCLC
# OVCAR-5 ovarian = system: OVCAR-5 ovarian
smiles,measurement,setting,value
CCCn1c(=O)c2[nH]c(-c3ccc(OCc4nc5ccc(C)cc5[nH]4)cc3)nc2n(CCC)c1=O,GI50,UACC-62 melanoma,10 µM
same,TGI,UACC-62 melanoma,25.6 µM
same,GI50,NCI-H23 lung,12 µM
same,TGI,NCI-H23 lung,24.4 µM
same,GI50,T-47D breast,16.9 µM
same,TGI,T-47D breast,47.2 µM
same,GI50,SNB-19 CNS,6 µM
same,TGI,SNB-19 CNS,28.6 µM
same,GI50,TK-10 renal,10.7 µM
same,TGI,TK-10 renal,23.1 µM
same,GI50,SW-620 colon,32.5 µM
same,TGI,SW-620 colon,> 100 µM
same,GI50,HCT-15 colon,14.7 µM
same,TGI,HCT-15 colon,> 100 µM
same,GI50,A549 NSCLC,13.5 µM
same,TGI,A549 NSCLC,> 100 µM
same,GI50,SK-MEL-2 melanoma,16.8 µM
same,TGI,SK-MEL-2 melanoma,33.2 µM
same,GI50,MALME-3M melanoma,7.28 µM
same,TGI,MALME-3M melanoma,20.5 µM
same,GI50,U251 CNS,4.06 µM
same,TGI,U251 CNS,17 µM
same,GI50,MCF7 breast,7.35 µM
same,TGI,MCF7 breast,36.6 µM
same,GI50,PC-3 prostate,9.66 µM
same,TGI,PC-3 prostate,> 100 µM
same,GI50,UACC-257 melanoma,40.9 µM
same,TGI,UACC-257 melanoma,> 100 µM
same,GI50,MDA-MB-231 breast,3.48 µM
same,TGI,MDA-MB-231 breast,14.5 µM
same,GI50,SNB-75 CNS,1.54 µM
same,TGI,SNB-75 CNS,4.62 µM
same,GI50,OVCAR-8 ovarian,5.3 µM
same,TGI,OVCAR-8 ovarian,24.8 µM
same,GI50,SK-OV-3 ovarian,12.1 µM
same,TGI,SK-OV-3 ovarian,27 µM
same,GI50,SK-MEL-28 melanoma,15.9 µM
same,TGI,SK-MEL-28 melanoma,> 100 µM
same,GI50,SF-539 CNS,2.61 µM
same,TGI,SF-539 CNS,7.98 µM
same,GI50,CAKI-1 renal,4.55 µM
same,TGI,CAKI-1 renal,25.1 µM
same,GI50,786-0 renal,3.06 µM
same,TGI,786-0 renal,12.1 µM
same,GI50,RXF 393 renal,1.62 µM
same,TGI,RXF 393 renal,5.12 µM
same,GI50,NCI-H522 lung,17.2 µM
same,TGI,NCI-H522 lung,42.3 µM
same,GI50,K-562 leukemia,22.3 µM
same,TGI,K-562 leukemia,> 100 µM
same,GI50,SN12C renal,3.78 µM
same,TGI,SN12C renal,18.1 µM
same,GI50,MDA-MB-435,31 µM
same,TGI,MDA-MB-435,> 100 µM
same,GI50,IGROV1 ovarian,10.1 µM
same,TGI,IGROV1 ovarian,38.7 µM
same,GI50,COLO 205 colon,84.7 µM
same,TGI,COLO 205 colon,> 100 µM
same,GI50,NCI-H460 lung,6.04 µM
same,TGI,NCI-H460 lung,23.1 µM
same,GI50,CCRF-CEM leukemia,32.8 µM
same,TGI,CCRF-CEM leukemia,> 100 µM
same,GI50,SR leukemia,> 100 µM
same,TGI,SR leukemia,> 100 µM
same,GI50,ACHN renal,3.29 µM
same,TGI,ACHN renal,13.4 µM
same,GI50,MDA-MB-468 breast,8.62 µM
same,TGI,MDA-MB-468 breast,27.6 µM
same,GI50,SF-295 CNS,2.65 µM
same,TGI,SF-295 CNS,13.1 µM
same,GI50,OVCAR-4 ovarian,2.73 µM
same,TGI,OVCAR-4 ovarian,> 100 µM
same,GI50,NCI/ADR-RES ovarian,11 µM
same,TGI,NCI/ADR-RES ovarian,64.5 µM
same,GI50,EKVX NSCLC,20.7 µM
same,TGI,EKVX NSCLC,> 100 µM
same,GI50,OVCAR-3 ovarian,8.62 µM
same,TGI,OVCAR-3 ovarian,85.9 µM
same,GI50,HS 578T breast,2.36 µM
same,TGI,HS 578T breast,11.1 µM
same,GI50,RPMI-8226 leukemia,9.71 µM
same,TGI,RPMI-8226 leukemia,> 100 µM
same,GI50,HCT-116 colon,11.3 µM
same,TGI,HCT-116 colon,27.8 µM
same,GI50,HT29 colon,29.6 µM
same,TGI,HT29 colon,> 100 µM
same,GI50,HCC-2998 colon,29 µM
same,TGI,HCC-2998 colon,> 100 µM
same,GI50,M14 melanoma,21.3 µM
same,TGI,M14 melanoma,> 100 µM
same,GI50,BT-549 breast,14 µM
same,TGI,BT-549 breast,46.7 µM
same,GI50,HOP-92 NSCLC,2.29 µM
same,TGI,HOP-92 NSCLC,9.1 µM
same,GI50,A498 renal,2.43 µM
same,TGI,A498 renal,10.6 µM
same,GI50,NCI-H226 lung,2.91 µM
same,TGI,NCI-H226 lung,13.2 µM
same,GI50,KM12 colon,> 100 µM
same,TGI,KM12 colon,> 100 µM
same,GI50,MOLT-4 leukemia,12.2 µM
same,TGI,MOLT-4 leukemia,> 100 µM
same,GI50,UO-31 renal,1.98 µM
same,TGI,UO-31 renal,7.27 µM
same,GI50,SK-MEL-5 melanoma,13.7 µM
same,TGI,SK-MEL-5 melanoma,31.5 µM
same,GI50,DU-145 prostate,66.4 µM
same,TGI,DU-145 prostate,> 100 µM
same,GI50,SF-268 CNS,12.6 µM
same,TGI,SF-268 CNS,> 100 µM
same,GI50,HL-60(TB) leukemia,46.2 µM
same,TGI,HL-60(TB) leukemia,> 100 µM
same,GI50,LOX IMVI melanoma,4.72 µM
same,TGI,LOX IMVI melanoma,17.3 µM
same,GI50,HOP-62 NSCLC,4.12 µM
same,TGI,HOP-62 NSCLC,16.9 µM
same,GI50,OVCAR-5 ovarian,18.5 µM
same,TGI,OVCAR-5 ovarian,76.8 µM
